Calls of active or inactive are those of the source. The rule behind the calls is not given here.
Experiments:
[1] = molecular target: Glycogen synthase kinase-3 beta (Mus musculus) (UniProt Q9WV60); assay: Inhibition of GSK-3beta in mouse Neuro2a cells harboring with pCAX/FLAG-tagged APP and pRK5/EGFP-tagged Tau P301L mutant at 0.1 to 10 uM assessed as reduction in GSK-3beta phosphorylation at Tyr216 residues after 24 hrs by Western blot analysis; assay type: cell-based
[2] = molecular target: Glycogen synthase kinase-3 beta (Homo sapiens) (UniProt P49841); assay: Inhibition of GSK-3beta in human SH-SY5Y cells assessed as reduction in GSK-3beta phosphorylation at Tyr216 residues at 0.1 to 5 uM pretreated for 24 hrs followed by OA addition and measured after 6 hrs by Western blot analysis; assay type: cell-based
[3] = tested on: N2a; assay: Cytotoxicity against mouse Neuro2a cells assessed as reduction in cell viability after 12 hrs by MTT assay; assay type: cell-based
[4] = tested on: N2a; assay: Cytotoxicity against mouse Neuro2a cells assessed as reduction in cell viability after 24 hrs by MTT assay; assay type: cell-based
[5] = tested on: SH-SY5Y; assay: Cytotoxicity against human SH-SY5Y cells assessed as reduction in cell viability after 12 hrs by MTT assay; assay type: cell-based
[6] = tested on: SH-SY5Y; assay: Cytotoxicity against human SH-SY5Y cells assessed as reduction in cell viability after 24 hrs by MTT assay; assay type: cell-based
[7] = molecular target: Glycogen synthase kinase-3 beta (Mus musculus) (UniProt Q9WV60); assay: Inhibition of GSK-3beta in mouse Neuro2a cells harboring with pCAX/FLAG-tagged APP and pRK5/EGFP-tagged Tau P301L mutant assessed as reduction in tau phosphorylation at S396 residues after 12 to 24 hrs by Western blot analysis; assay type: cell-based
[8] = molecular target: Glycogen synthase kinase-3 beta (Mus musculus) (UniProt Q9WV60); assay: Inhibition of GSK-3beta in mouse Neuro2a cells harboring with pCAX/FLAG-tagged APP and pRK5/EGFP-tagged Tau P301L mutant assessed as reduction in tau phosphorylation at S404 residues after 12 to 24 hrs by Western blot analysis; assay type: cell-based
[9] = molecular target: Glycogen synthase kinase-3 beta (Homo sapiens) (UniProt P49841); assay: Inhibition of GSK-3beta in human SH-SY5Y cells harboring with pCAX/FLAG-tagged APP and pRK5/EGFP-tagged Tau P301L mutant assessed as reduction in tau phosphorylation at S396 residues after 12 to 24 hrs by Western blot analysis; assay type: cell-based
[10] = molecular target: Glycogen synthase kinase-3 beta (Homo sapiens) (UniProt P49841); assay: Inhibition of GSK-3beta in human SH-SY5Y cells harboring with pCAX/FLAG-tagged APP and pRK5/EGFP-tagged Tau P301L mutant assessed as reduction in tau phosphorylation at S404 residues after 12 to 24 hrs by Western blot analysis; assay type: cell-based
[11] = tested on: N2a; assay: Effect on total tau protein level in mouse Neuro2a cells harboring with pCAX/FLAG-tagged APP and pRK5/EGFP-tagged Tau P301L mutant at 0.1 to 10 uM after 12 to 24 hrs by Western blot analysis; assay type: ADME, cell-based
[12] = tested on: SH-SY5Y; assay: Effect on total tau protein level in human SH-SY5Y cells harboring with pCAX/FLAG-tagged APP and pRK5/EGFP-tagged Tau P301L mutant at 0.1 to 10 uM after 12 to 24 hrs by Western blot analysis; assay type: ADME, cell-based
[13] = molecular target: Glycogen synthase kinase-3 beta (Mus musculus) (UniProt Q9WV60); assay: Inhibition of GSK-3beta in mouse Neuro2a cells harboring with pCAX/FLAG-tagged APP and pRK5/EGFP-tagged Tau P301L mutant at 0.1 to 10 uM assessed as increase in GSK-3beta phosphorylation at Ser9 residues after 24 hrs by Western blot analysis; assay type: cell-based
[14] = molecular target: Glycogen synthase kinase-3 beta (Mus musculus) (UniProt Q9WV60); assay: Inhibition of GSK3beta in mouse Neuro2a cells assessed as reduction in tau phosphorylation at S202/T205 residues at 0.1 to 5 uM pretreated for 12 to 24 hrs followed by OA addition and measured after 6 hrs by Western blot analysis; assay type: cell-based
[15] = molecular target: Glycogen synthase kinase-3 beta (Mus musculus) (UniProt Q9WV60); assay: Inhibition of GSK3beta in mouse Neuro2a cells assessed as reduction in tau phosphorylation at S262 residues at 0.1 to 5 uM pretreated for 12 to 24 hrs followed by OA addition and measured after 6 hrs by Western blot analysis; assay type: cell-based
[16] = molecular target: Glycogen synthase kinase-3 beta (Homo sapiens) (UniProt P49841); assay: Inhibition of GSK3beta in human SH-SY5Y cells assessed as reduction in tau phosphorylation at S202/T205 residues at 0.1 to 5 uM pretreated for 12 to 24 hrs followed by OA addition and measured after 6 hrs by Western blot analysis; assay type: cell-based
[17] = molecular target: Glycogen synthase kinase-3 beta (Homo sapiens) (UniProt P49841); assay: Inhibition of GSK3beta in human SH-SY5Y cells assessed as reduction in tau phosphorylation at S262 residues at 0.1 to 5 uM pretreated for 12 to 24 hrs followed by OA addition and measured after 6 hrs by Western blot analysis; assay type: cell-based
[18] = tested on: N2a; assay: Effect on total tau protein level in mouse Neuro2a cells at 0.1 to 5 uM pretreated for 12 to 24 hrs followed by OA addition and measured after 6 hrs by Western blot analysis; assay type: cell-based
[19] = tested on: SH-SY5Y; assay: Effect on total tau protein level in human SH-SY5Y cells at 0.1 to 5 uM pretreated for 12 to 24 hrs followed by OA addition and measured after 6 hrs by Western blot analysis; assay type: ADME, cell-based
[20] = molecular target: Glycogen synthase kinase-3 beta (Homo sapiens) (UniProt P49841); assay: Inhibition of GSK-3beta in human SH-SY5Y cells harboring with pCAX/FLAG-tagged APP and pRK5/EGFP-tagged Tau P301L mutant at 0.1 to 10 uM assessed as reduction in GSK-3beta phosphorylation at Tyr216 residues after 24 hrs by Western blot analysis; assay type: cell-based
[21] = molecular target: Glycogen synthase kinase-3 beta (Homo sapiens) (UniProt P49841); assay: Inhibition of GSK-3beta in human SH-SY5Y cells harboring with pCAX/FLAG-tagged APP and pRK5/EGFP-tagged Tau P301L mutant at 0.1 to 10 uM assessed as increase in GSK-3beta phosphorylation at Ser9 residues after 24 hrs by Western blot analysis; assay type: cell-based
[22] = molecular target: Glycogen synthase kinase-3 beta (Homo sapiens) (UniProt P49841); assay: Inhibition of GSK-3beta in human SH-SY5Y cells assessed as increase in GSK-3beta phosphorylation at Ser9 residues at 0.1 to 5 uM pretreated for 24 hrs followed by OA addition and measured after 6 hrs by Western blot analysis; assay type: cell-based
[23] = tested on: SH-SY5Y; assay: Antioxidant activity in OA-induced human SH-SY5Y cells assessed as increase in MDA level at 0.1 to 1 uM pretreated for 12 hrs followed by OA addition and measured after 12 hrs; assay type: functional, cell-based
[24] = tested on: SH-SY5Y; assay: Antioxidant activity in OA-induced human SH-SY5Y cells assessed as decrease in GSH level at 0.1 to 1 uM pretreated for 12 hrs followed by OA addition and measured after 12 hrs; assay type: functional, cell-based
[25] = molecular target: c-Jun N-terminal kinase, JNK (Homo sapiens) (UniProt P45983+P53779+P45984); assay: Inhibition of JNK phosphorylation in OA-induced human SH-SY5Y cells pretreated for 24 hrs followed by OA addition and measured after 6 hrs by Western blot analysis; assay type: cell-based
[26] = tested on: SH-SY5Y; assay: Inhibition of ERK phosphorylation in OA-induced human SH-SY5Y cells pretreated for 24 hrs followed by OA addition and measured after 6 hrs by Western blot analysis; assay type: cell-based
[27] = molecular target: MAP kinase p38 (Homo sapiens) (UniProt O15264+Q15759+Q16539+P53778); assay: Inhibition of p38 phosphorylation in OA-induced human SH-SY5Y cells pretreated for 24 hrs followed by OA addition and measured after 6 hrs by Western blot analysis; assay type: cell-based
[28] = tested on: SH-SY5Y; assay: Inhibition of tau aggregation in OA-induced human SH-SY5Y cells at 0.1 to 5 uM pretreated for 24 hrs followed by OA addition and measured after 6 hrs by Western blot analysis; assay type: functional, cell-based
[29] = tested on: SH-SY5Y; assay: Effect on cell cycle arrest in OA-induced human SH-SY5Y cells assessed as accumulation at sub-G1 phase at 0.1 uM pretreated for 6 hrs followed by OA addition and measured after 16 hrs […] (reference value: 32.28%); assay type: functional
[30] = tested on: Mus musculus; assay: Anti-alzhemeric activity in scopolamine-induced ICR mouse assessed as increase in swimming distance at 25 to 100 mg/kg, ip for 2 weeks followed by scopolamine treatment and measured after 90 mins by Morris water maze test; assay type: functional, organism-based
[31] = tested on: Mus musculus; assay: Anti-alzhemeric activity in scopolamine-induced ICR mouse assessed as increase in time spent in the target quadrant at 25 to 100 mg/kg, ip for 2 weeks followed by scopolamine treatment and measured after 90 mins by Morris water maze test; assay type: functional, organism-based
[32] = tested on: Mus musculus; assay: Anti-alzhemeric activity in scopolamine-induced ICR mouse assessed as increase in swimming speed at 25 to 100 mg/kg, ip for 2 weeks followed by scopolamine treatment and measured after 90 mins by Morris water maze test; assay type: functional, organism-based
[33] = tested on: Mus musculus; assay: Reversal of scopolamine-induced spatial memory impairment in ICR mouse assessed as decrease in time spent on […] at 25 to 100 mg/kg, ip for 2 weeks followed by scopolamine treatment and measured after 90 mins by Morris water maze test; assay type: functional, organism-based
[34] = tested on: Mus musculus; assay: Anti-alzhemeric activity in scopolamine-induced ICR mouse assessed as inhibition of tau phosphorylation at S202/T205 residues in brain at 25 to 100 mg/kg, ip for 2 weeks followed by scopolamine treatment by Western blot analysis; assay type: functional, organism-based
[35] = tested on: Mus musculus; assay: Anti-alzhemeric activity in scopolamine-induced ICR mouse assessed as inhibition of tau phosphorylation at Ser262 residues in brain at 25 to 100 mg/kg, ip for 2 weeks followed by scopolamine treatment by Western blot analysis; assay type: functional, organism-based
[36] = tested on: Mus musculus; assay: Anti-alzhemeric activity in scopolamine-induced ICR mouse assessed as inhibition of tau phosphorylation at Ser396 residues in brain at 25 to 100 mg/kg, ip for 2 weeks followed by scopolamine treatment by Western blot analysis; assay type: functional, organism-based
[37] = tested on: Mus musculus; assay: Anti-alzhemeric activity in scopolamine-induced ICR mouse assessed as increase in GSK-3beta phosphorylation Ser9 residues in brain at 25 to 100 mg/kg, ip for 2 weeks followed by scopolamine treatment by Western blot analysis; assay type: functional, organism-based
[38] = tested on: Mus musculus; assay: Anti-alzhemeric activity in scopolamine-induced ICR mouse assessed as reduction in tau phosphorylation at S202/T205 residues in hippocampal CA1 region at 25 to 100 mg/kg, ip for 2 weeks followed by scopolamine treatment by immunohistochemistry-based analysis; assay type: functional, organism-based
[39] = tested on: Mus musculus; assay: Anti-alzhemeric activity in scopolamine-induced ICR mouse assessed as increase in GSK-3beta phosphorylation Ser9 residues in hippocampal CA1 region at 25 to 100 mg/kg, ip for 2 weeks followed by scopolamine treatment by immunohistochemistry-based analysis; assay type: functional, organism-based
[40] = Toxicity in ICR mouse assessed as effect on body weight at 25 to 100 mg/kg, ip for 2 weeks; assay type: organism-based; conditions: in vivo, 336 h
[41] = Toxicity in ICR mouse assessed as effect on body weight at 1 mg/kg, ip for 2 weeks; assay type: organism-based; conditions: in vivo, 336 h

Sequence of Glycogen synthase kinase-3 beta (Homo sapiens) (P49841 whole entry, looked up): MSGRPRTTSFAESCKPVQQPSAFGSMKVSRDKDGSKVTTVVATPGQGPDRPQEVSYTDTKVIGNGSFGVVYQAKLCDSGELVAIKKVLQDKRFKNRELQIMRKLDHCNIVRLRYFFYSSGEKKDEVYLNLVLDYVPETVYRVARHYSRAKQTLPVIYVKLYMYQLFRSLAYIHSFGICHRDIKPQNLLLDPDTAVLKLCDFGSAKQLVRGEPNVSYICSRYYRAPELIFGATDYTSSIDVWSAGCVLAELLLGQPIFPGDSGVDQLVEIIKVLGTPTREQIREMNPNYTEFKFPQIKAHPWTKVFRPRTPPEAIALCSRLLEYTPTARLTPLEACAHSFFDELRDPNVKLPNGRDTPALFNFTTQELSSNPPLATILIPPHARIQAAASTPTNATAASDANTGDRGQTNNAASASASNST
Sequence of Glycogen synthase kinase-3 beta (Mus musculus) (Q9WV60 whole entry, looked up): as the sequence (P49841 whole entry, looked up) above, with T390P, T392A, A400T, T402A counted along it

inhibition [1]: Active
inhibition [2]: Active
inhibition [7]: Dose-dependent effect
inhibition [8]: Dose-dependent effect
inhibition [9]: Dose-dependent effect
inhibition [10]: Dose-dependent effect
inhibition [13]: Active
inhibition [14]: Active
inhibition [15]: Active
inhibition [16]: Active
inhibition [17]: Active
inhibition [20]: Active
inhibition [21]: Active
inhibition [22]: Active
inhibition [25]: Dose-dependent effect
inhibition [27]: Dose-dependent effect
Structure (SMILES): COc1cc(CCc2cc(OC)c(O)c(OC)c2)ccc1O [MOSCATILIN]
IC50 [3]: > 20 µM
IC50 [4]: > 20 µM
IC50 [5]: > 20 µM
IC50 [6]: > 20 µM
Activity [11]: Non-Toxic
Activity [12]: Non-Toxic
Activity [18]: Non-Toxic
Activity [19]: Non-Toxic
Activity [23]: Active
Activity [24]: Active
inhibition [26]: Dose-dependent effect
inhibition [28]: Active
Activity [29]: 20.81%
Activity [30]: Active
Activity [31]: Active
Activity [32]: inactive
Activity [33]: Active
Activity [34]: Active
Activity [35]: Active
Activity [36]: Active
Activity [37]: Active
Activity [38]: Active
Activity [39]: Active
Activity [40]: Non-Toxic
Activity [41]: Non-Toxic
